Measurements published in the supplement of paper PMC10307832.

What was measured:
Test in all cases: relative viability (nuclei count vs DMSO), 5 days (fraction); higher = more cells survive
Vismodegib + Foretinib = compound: CS(=O)(=O)c1ccc(C(=O)Nc2ccc(Cl)c(-c3ccccn3)c2)c(Cl)c1 [Vismodegib] + COc1cc2c(Oc3ccc(NC(=O)C4(C(=O)Nc5ccc(F)cc5)CC4)cc3F)ccnc2cc1OCCCN1CCOCC1 [Foretinib] (partner 0.25 µM)
Outline: (§1)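 One day after seeding in 1536-well plates, lung cancer cell lines were dosed by pin tool. Dosing was either single-drug or a fixed anchor-drug dose plus five library-drug doses (not always all listed) in √10 steps. After 5 days, nuclei were stained in one fix-and-stain step and counted on 4× images, and relative viability is the nuclei count of treated wells over that of vehicle wells, given as the median of duplicate plates.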

VE-821 + Decitabine = compound: CS(=O)(=O)c1ccc(-c2cnc(N)c(C(=O)Nc3ccccc3)n2)cc1 [VE-821] + Nc1ncn([C@H]2C[C@H](O)[C@@H](CO)O2)c(=O)n1 [Decitabine] (partner 2 µM)
Outline: as §1

Vismodegib + Bortezomib = compound: CS(=O)(=O)c1ccc(C(=O)Nc2ccc(Cl)c(-c3ccccn3)c2)c(Cl)c1 [Vismodegib] + CC(C)C[C@H](NC(=O)[C@H](Cc1ccccc1)NC(=O)c1cnccn1)B(O)O [Bortezomib] (partner 0.002 µM)
Outline: as §1

| Cell Line | relative viability (Vismodegib + Foretinib; first compound 0.08 µM) | relative viability (Vismodegib + Foretinib; first compound 0.253 µM) | relative viability (Vismodegib + Foretinib; first compound 0.8 µM) | relative viability (Vismodegib + Foretinib; first compound 2.53 µM) | relative viability (Vismodegib + Foretinib; first compound 8 µM) | relative viability (VE-821 + Decitabine; first compound 0.08 µM) | relative viability (VE-821 + Decitabine; first compound 0.253 µM) | relative viability (VE-821 + Decitabine; first compound 0.8 µM) | relative viability (VE-821 + Decitabine; first compound 2.53 µM) | relative viability (VE-821 + Decitabine; first compound 8 µM) | relative viability (Vismodegib + Bortezomib; first compound 0.08 µM) | relative viability (Vismodegib + Bortezomib; first compound 0.253 µM) | relative viability (Vismodegib + Bortezomib; first compound 0.8 µM) | relative viability (Vismodegib + Bortezomib; first compound 2.53 µM) | relative viability (Vismodegib + Bortezomib; first compound 8 µM) |
| --- | --- | --- | --- | --- | --- | --- | --- | --- | --- | --- | --- | --- | --- | --- | --- |
| SW 900 | 0.743 | 0.622 | 0.761 | 0.655 | 0.857 | 0.471 | 0.456 | 0.472 | 0.469 | 0.386 | – | – | – | – | – |
| NCI-H358 | 0.677 | 0.629 | 0.797 | 0.68 | 0.782 | 0.22 | 0.279 | 0.278 | 0.278 | 0.273 | – | – | – | – | – |
| ChaGo-K-1 | 1.03 | 0.918 | 0.92 | 0.838 | 0.886 | 0.55 | 0.493 | 0.506 | 0.537 | 0.559 | 0.971 | 0.957 | 0.845 | 0.744 | 1.04 |
| NCI-H1755 | 0.894 | 0.91 | 0.947 | 0.96 | 0.913 | 0.734 | 0.754 | 0.866 | 0.867 | 0.831 | 0.903 | 0.947 | 1.05 | 0.966 | 1.01 |
| LCLC-103H | 0.747 | 0.758 | 0.73 | 0.756 | 0.776 | 0.749 | 0.702 | 0.778 | 0.77 | 0.729 | 1.05 | 1.03 | 1.07 | 0.99 | 0.983 |
| HCC-827 | 0.995 | 1.03 | 0.972 | 1.01 | 0.866 | 0.347 | 0.344 | 0.357 | 0.352 | 0.357 | 1.05 | 1.06 | 0.982 | 1.14 | 0.985 |
| HCC-44 | – | – | – | – | – | 0.9 | 0.963 | 1.05 | 1.04 | 1.04 | 0.918 | 0.816 | 0.897 | 0.841 | 0.901 |
| NCI-H727 | 0.973 | 0.867 | 0.896 | 0.761 | 0.792 | 0.865 | 0.799 | 0.952 | 0.916 | 0.751 | 0.876 | 0.835 | 0.905 | 0.939 | 0.77 |
| NCI-H1563 | 0.895 | 1.02 | 0.922 | 0.936 | 1.02 | – | – | – | – | – | 0.845 | 0.881 | 0.904 | 0.922 | 0.906 |
| NCI-H1650 | 1.08 | 0.938 | 1.13 | 1.07 | 1.21 | 0.448 | 0.369 | 0.322 | 0.437 | 0.389 | 0.196 | 0.314 | 0.198 | 0.205 | 0.191 |
| COR-L 105 | 1.23 | 0.829 | 1.17 | 0.82 | 0.994 | 0.666 | 0.579 | 0.58 | 0.613 | 0.518 | 0.765 | 0.907 | 0.778 | 0.753 | 0.665 |
| COR-L23 | 0.957 | 0.929 | 0.891 | 0.973 | 1.06 | 0.538 | 0.459 | 0.599 | 0.58 | 0.468 | 1 | 0.938 | 0.983 | 0.916 | 1.09 |
| NCI-H596 | 0.826 | 0.83 | 0.463 | 0.964 | 1 | 1.08 | 1.08 | 1.04 | 1.12 | 1.09 | 0.923 | 1.09 | 0.976 | 1.18 | 1.05 |
| NCI-H322M | 1.01 | 0.965 | 1.01 | 0.87 | 0.97 | 0.693 | 0.639 | 0.752 | 0.793 | 0.553 | 1.25 | 1.12 | 1.22 | 1.23 | 1.13 |
| H3255 | 0.865 | 0.866 | 0.822 | 0.888 | 0.878 | 0.655 | 0.551 | 0.614 | 0.752 | 0.596 | 0.855 | 0.632 | 0.596 | 0.762 | 0.753 |
| PC-14 | 0.91 | 0.948 | 0.984 | 0.998 | 0.963 | 0.221 | 0.241 | 0.222 | 0.213 | 0.126 | 0.802 | 0.779 | 0.994 | 0.761 | 0.755 |
| A549 | 1.03 | 0.928 | 1.05 | 0.969 | 0.943 | 0.319 | 0.454 | 0.221 | 0.318 | 0.281 | – | – | – | – | – |
| NCI-H2342 | 0.984 | 1.04 | 1.06 | 0.949 | 0.947 | 0.773 | 0.754 | 0.704 | 0.75 | 0.682 | – | – | – | – | – |
| NCI-H1623 | 0.805 | 0.927 | 0.914 | 0.822 | 0.864 | – | – | – | – | – | – | – | – | – | – |
| NCI-H520 | 0.839 | 0.678 | 0.697 | 0.709 | 0.682 | 0.516 | 0.526 | 0.583 | 0.545 | 0.379 | 0.443 | 0.812 | 0.619 | 0.697 | 0.668 |
| NCI-H2405 | 1.05 | 1.04 | 0.995 | 1.01 | 1.08 | 0.805 | 0.698 | 0.775 | 0.814 | 0.761 | 0.833 | 0.977 | 0.978 | 0.92 | 0.995 |
| PC-3 [JPC-3] | 1.08 | 1.01 | 0.965 | 0.993 | 1.03 | 0.87 | 0.832 | 0.95 | 0.912 | 0.799 | 0.827 | 0.929 | 0.786 | 0.766 | 0.93 |
| EBC-1 | 0.102 | 0.102 | 0.0802 | 0.097 | 0.105 | – | – | – | – | – | 0.481 | 0.564 | 0.567 | 0.559 | 0.67 |
| NCI-H2347 | 1.12 | 0.599 | – | 0.834 | 0.978 | 0.624 | 0.595 | 0.678 | 0.693 | 0.723 | 1 | 0.9 | – | 0.969 | 0.968 |
| LXF-289 | 0.943 | 0.913 | 1.01 | 0.97 | 0.922 | 0.426 | 0.413 | 0.467 | 0.437 | 0.556 | 0.985 | 0.977 | 1.02 | 0.965 | 0.944 |
